Measurements taken from US5639783A, “Ketone derivatives” (Mitsubishi Chemical Corporation, priority 1991, dated 1997).

Each molecule was assayed against T1, m-calpain (Rattus norvegicus, UniProt Q07009) (assay: Thiol protease inhibitory activity, m-calpain purified from rat brain). Settings: Table 4.
T1 construct: m-calpain was purified from rat brain; from tissue; host or cells: rat brain
T1 sequence (Q07009 20-700 limits assumed): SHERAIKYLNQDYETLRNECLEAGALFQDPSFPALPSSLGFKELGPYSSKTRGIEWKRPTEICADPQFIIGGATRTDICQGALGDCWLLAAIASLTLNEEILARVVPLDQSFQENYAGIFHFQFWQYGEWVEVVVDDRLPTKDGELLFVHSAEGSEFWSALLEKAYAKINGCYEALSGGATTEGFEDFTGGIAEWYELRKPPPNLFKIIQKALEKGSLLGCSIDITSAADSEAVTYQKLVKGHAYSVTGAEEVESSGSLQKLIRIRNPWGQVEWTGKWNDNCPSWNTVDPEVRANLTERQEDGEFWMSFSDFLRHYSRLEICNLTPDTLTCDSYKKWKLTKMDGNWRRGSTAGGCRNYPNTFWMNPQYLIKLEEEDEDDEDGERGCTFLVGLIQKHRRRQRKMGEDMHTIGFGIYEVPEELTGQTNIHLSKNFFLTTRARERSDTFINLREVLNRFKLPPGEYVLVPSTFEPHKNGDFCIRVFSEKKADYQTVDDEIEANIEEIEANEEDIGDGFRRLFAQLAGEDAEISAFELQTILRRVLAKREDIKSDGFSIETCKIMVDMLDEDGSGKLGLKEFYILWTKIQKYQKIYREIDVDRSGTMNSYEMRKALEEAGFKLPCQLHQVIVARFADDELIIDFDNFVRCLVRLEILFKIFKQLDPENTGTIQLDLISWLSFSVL
T1 sequence (Q64537 1-270 partner): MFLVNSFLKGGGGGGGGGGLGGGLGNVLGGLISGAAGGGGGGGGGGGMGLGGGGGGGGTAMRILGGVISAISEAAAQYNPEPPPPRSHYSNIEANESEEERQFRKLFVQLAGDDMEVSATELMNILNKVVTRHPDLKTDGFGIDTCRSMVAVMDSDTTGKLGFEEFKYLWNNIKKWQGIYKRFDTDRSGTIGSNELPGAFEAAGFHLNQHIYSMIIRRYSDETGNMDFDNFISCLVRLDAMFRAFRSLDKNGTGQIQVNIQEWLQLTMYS
Type: biochemical
Procedure: Inhibitory activity against papain (P-3125, Sigma) and cathepsin B (C-6286, Sigma) was assayed according to the method described in a literature [Biochemical Journal, 201, 189 (1982)]. Cathepsin L was purified from rat kidney according to the method in a literature [Journal of Biochemistry, 100, 35 (1986)], and the inhibitory activity against it was assayed in the same manner as described in the above literature for cathepsin B. Furthermore, m-calpain was purified from rat brain according to a known method [Journal of Biological Chemistry, 254, p. 3210 (1984)] and the inhibitory activity against it was assayed by a method described in a literature [Journal of Biological Chemistry, 259, 12489 (1984)]. It is evident from Tables 3 and 4 that the compounds of the present invention have a potent inhibitory activity against thiol proteases such as papain, cathepsin B, cathepsin L or m-calpain.

SMILES | IC50
CCCC[C@H](NC(=O)[C@H](CC(C)C)NC(=O)c1cc(F)ccc1F)C(=O)CSCc1ccco1 [60 (No. 122), (s)-3-[(s)-2-(2,5-difluorobenzoylamino)-4-methylvalerylamino]-1-furfurylthio-2-heptanone] | 1.3 µM
CCCC[C@H](NC(=O)[C@H](CC(C)C)NC(=O)c1ccc(F)cc1F)C(=O)CSCc1ccco1 [59 (No. 121), (s)-3-[(s)-2-(2,4-difluorobenzoylamino)-4-methylvalerylamino]-1-furfurylthio-2-heptanone] | 4.2 µM
CCCC[C@H](NC(=O)[C@H](CC(C)C)NC(=O)c1ccc(F)c(F)c1F)C(=O)CSCc1ccco1 [64 (No. 126), (s)-1-furfurylthio-3-[(s)-4-methyl-2-(2,3,4-trifluorobenzoylamino)valerylamino]-2-heptanone] | 4.3 µM
CCCC[C@H](NC(=O)[C@H](CC(C)C)NC(=O)c1ccc(F)c(F)c1)C(=O)CSCc1ccco1 [62 (No. 124), (s)-3-[(s)-2-(3,4-difluorobenzoylamino)-4-methylvalerylamino]-1-furfurylthio-2-heptanone] | 4.3 µM
CCCC[C@H](NC(=O)[C@H](CC(C)C)NC(=O)C=Cc1ccc(OC)cc1)C(=O)CSCc1ccco1 [84 (No. 165), (s)-1-furfurylthio-3-[(s)-2-(4-methoxycinnamoylamino)-4-methylvalerylamino]-2-heptanone] | 2.1 µM
CCCC[C@H](NC(=O)[C@H](CC(C)C)NC(=O)COc1cccc(OC)c1)C(=O)CSCc1ccco1 [78 (No. 103), (s)-1-furfurylthio-3-[(s)-2-(3-methoxyphenoxyacetylamino)-4-methylvalerylamino]-2-heptanone] | 6 µM
CCCC[C@H](NC(=O)[C@H](CC(C)C)NC(=O)c1c(F)cccc1F)C(=O)CSCc1ccco1 [61 (No. 123), (s)-3-[(s)-2-(2,6-difluorobenzoylamino)-4-methylvalerylamino]-1-furfurylthio-2-heptanone] | 1.9 µM
CCCC[C@H](NC(=O)[C@H](CC(C)C)NC(=O)c1ccccc1OC)C(=O)CSCc1ccco1 [77 (No. 151), (s)-1-furfurylthio-3-[(s)-2-(2-methoxybenzoylamino)-4-methylvalerylamino]-2-heptanone] | 1.2 µM
CCCC[C@H](NC(=O)[C@H](CC(C)C)NC(=O)c1ccc(F)cc1)C(=O)CSCc1ccco1 [57 (No. 119), (s)-3-[(s)-2-(4-fluorobenzoylamino)-4-methylvalerylamino]-1-furfurylthio-2-heptanone] | 5.3 µM
CCCC[C@H](NC(=O)[C@H](CC(C)C)NC(=O)c1cc(F)cc(F)c1)C(=O)CSCc1ccco1 [63 (No. 125), (s)-3-[(s)-2-(3,5-difluorobenzoylamino)-4-methylvalerylamino]-1-furfurylthio-2-heptanone] | 5.5 µM
CCCC[C@H](NC(=O)[C@H](CC(C)C)NC(=O)c1ccc(C)cc1)C(=O)CSCc1ccco1 [71 (No. 142), (s)-1-furfurylthio-3-[(s)-4-methyl-2-(4-toluoylamino)valerylamino]-2-heptanone] | 4.2 µM
CC(C)C[C@H](NC(=O)OCc1ccccc1)C(=O)N1CCC[C@H]1C(=O)CSCc1ccco1 [Ref. Ex. No. 3, (s)-1-((s)-2-benzyloxycarbonylamino-4-methylvaleryl)-2-furfurylthioacetylpyrrolidine, reference compound] | > 100 µM
CCCC[C@H](NC(=O)[C@H](CC(C)C)NC(=O)c1cc2cccc(F)c2o1)C(=O)CSCc1ccco1 [93 (No. 182), (s)-3-[(s)-2-(7-fluoro-2-benzofuranylcarbonylamino)-4-methylvalerylamino]-1-furfurylthio-2-heptanone] | 7.8 µM
CCCC[C@H](NC(=O)[C@H](CC(C)C)NC(=O)Cc1cccc2c1OCO2)C(=O)CSCc1ccco1 [32 (No. 73), (s)-1-furfurylthio-3-[(s)-4-methyl-2-(2,3-methylenedioxyphenylacetylamino)valerylamino]-2-heptanone] | 6.2 µM
CCCC[C@H](NC(=O)[C@H](CC(C)C)NC(=O)c1c(F)c(F)c(F)c(F)c1F)C(=O)CSCc1ccco1 [68 (No. 135), (s)-1-furfurylthio-3-((s)-4-methyl-2-pentafluorobenzoylaminovalerylamino)-2-heptanone] | 2.1 µM
CCCC[C@H](NC(=O)[C@H](CC(C)C)NC(=O)c1cc(F)c(F)c(F)c1F)C(=O)CSCc1ccco1 [67 (No. 132), (s)-1-furfurylthio-3-[(s)-4-methyl-2-(2,3,4,5-tetrafluorobenzoylamino)valerylamino]-2-heptanone] | 2.1 µM
CC(C)C[C@H](NC(=O)OCc1ccccc1)C(=O)N[C@@H](Cc1ccccc1)C(=O)CSCc1ccco1 [139 (No. 297), (s)-3-((s)-2-benzyloxycarbonylamino-4-methylvalerylamino)-1-furfurylthio-4-phenyl-2-butanone] | 4.5 µM
CCCC[C@H](NC(=O)[C@H](CC(C)C)NC(=O)COc1ccc(OC)cc1)C(=O)CSCc1ccco1 [48 (No. 104), (s)-1-furfurylthio-3-[(s)-2-(4-methoxyphenoxyacetylamino)-4-methylvalerylamino]-2-heptanone] | 1 µM
CCCC[C@H](NC(=O)[C@H](CC(C)C)NC(=O)c1c(F)ccc(F)c1F)C(=O)CSCc1ccco1 [65 (No. 128), (s)-1-furfurylthio-3-[(s)-4-methyl-2-(2,3,6-trifluorobenzoylamino)valerylamino]-2-heptanone] | 5 µM
CCCC[C@H](NC(=O)[C@H](CC(C)C)NC(=O)COc1ccccc1OC)C(=O)CSCc1ccco1 [47 (No. 102), (s)-1-furfurylthio-3-[(s)-2-(2-methoxyphenoxyacetylamino)-4-methylvalerylamino]-2-heptanone] | 1.3 µM
CCCC[C@H](NC(=O)[C@H](CC(C)C)NC(=O)c1ccc(C(=O)OC)cc1)C(=O)CSCc1ccco1 [81 (No. 157), (s)-1-furfurylthio-3-[(s)-2-(4-methoxycarbonylbenzoylamino)-4-methylvalerylamino]-2-heptanone] | 3.4 µM
CCCC[C@H](NC(=O)[C@H](CC(C)C)NC(=O)OCc1ccccc1)C(=O)CSCc1ccncc1 [107 (No. 230), (s)-3-((s)-2-benzyloxycarbonylamino-4-methylvalerylamino)-1-(4-pyridylmethylthio)-2-heptanone] | 4.2 µM
CCCC[C@H](NC(=O)[C@H](CC(C)C)NC(=O)OCc1ccccc1)C(=O)CSCc1cccnc1 [106 (No. 228), (s)-3-((s)-2-benzyloxycarbonylamino-4-methylvalerylamino)-1-(3-pyridylmethylthio)-2-heptanone] | 3.1 µM
CCCC[C@H](NC(=O)[C@H](CC(C)C)NC(=O)c1ccc(OC)cc1)C(=O)CSCc1ccco1 [79 (No. 153), (s)-1-furfurylthio-3-[(s)-2-(4-methoxybenzoylamino)-4-methylvalerylamino]-2-heptanone] | 1.9 µM
CCCC[C@H](NC(=O)[C@H](CC(C)C)NC(=O)OCc1ccccc1)C(=O)CSCc1ccccn1 [105 (No. 226), (s)-3-((s)-2-benzyloxycarbonylamino-4-methylvalerylamino)-1-(2-pyridylmethylthio)-2-heptanone] | 1.3 µM
CCCC[C@H](NC(=O)[C@H](CC(C)C)NC(=O)c1cccc(F)c1F)C(=O)CSCc1ccco1 [58 (No. 120), (s)-3-[(s)-2-(2,3-difluorobenzoylamino)-4-methylvalerylamino]-1-furfurylthio-2-heptanone] | 1.6 µM
CCCC[C@H](NC(=O)[C@H](CC(C)C)NC(=O)c1cc(OC)cc(OC)c1)C(=O)CSCc1ccco1 [80 (No. 155), (s)-3-[(s)-2-(3,5-dimethoxybenzoylamino)-4-methylvalerylamino]-1-furfurylthio-2-heptanone] | 4.2 µM
CCCC[C@H](NC(=O)[C@H](CC(C)C)NC(=O)c1cc(F)c(F)c(F)c1)C(=O)CSCc1ccco1 [66 (No. 130), (s)-1-furfurylthio-3-[(s)-4-methyl-2-(3,4,5-trifluorobenzoylamino)valerylamino]-2-heptanone] | 1.4 µM
CCCC[C@H](NC(=O)[C@H](CC(C)C)NC(=O)c1ccccc1F)C(=O)CSCc1ccco1 [55 (No. 117), (s)-3-[(s)-2-(2-fluorobenzoylamino)-4-methylvalerylamino]-1-furfurylthio-2-heptanone] | 1.5 µM
